Numbering of substitutions follows the chain as printed.
Assays:
[1] = target: T1, epithelial sodium channel (ENaC), β subunit (FLAG-tagged/G525C β-ENaC) (Rattus norvegicus, UniProt P37089+P37090+P37091, P37090:G525C); test: dose-response block of short-circuit current in MDCK monolayers; format: cell-based
T1 sequence (P37090 1-638 G525C): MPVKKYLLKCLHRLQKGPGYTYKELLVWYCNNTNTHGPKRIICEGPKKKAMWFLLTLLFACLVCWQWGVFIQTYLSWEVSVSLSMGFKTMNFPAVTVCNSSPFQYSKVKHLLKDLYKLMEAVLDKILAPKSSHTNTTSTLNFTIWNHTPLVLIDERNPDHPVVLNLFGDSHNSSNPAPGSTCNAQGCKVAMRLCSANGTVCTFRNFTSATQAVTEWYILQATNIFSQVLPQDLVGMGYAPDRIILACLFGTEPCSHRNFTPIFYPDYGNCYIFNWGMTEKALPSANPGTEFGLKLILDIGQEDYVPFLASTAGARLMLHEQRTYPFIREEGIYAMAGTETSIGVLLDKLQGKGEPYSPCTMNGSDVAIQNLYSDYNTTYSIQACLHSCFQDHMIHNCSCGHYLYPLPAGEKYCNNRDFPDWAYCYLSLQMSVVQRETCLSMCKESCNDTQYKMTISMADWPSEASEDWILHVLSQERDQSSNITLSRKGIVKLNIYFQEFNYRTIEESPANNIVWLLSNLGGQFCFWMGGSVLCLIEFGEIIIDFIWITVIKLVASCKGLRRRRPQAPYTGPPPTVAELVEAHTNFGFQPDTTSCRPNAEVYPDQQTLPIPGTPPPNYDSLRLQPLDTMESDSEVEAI
T1 sequence (P37089 1-698): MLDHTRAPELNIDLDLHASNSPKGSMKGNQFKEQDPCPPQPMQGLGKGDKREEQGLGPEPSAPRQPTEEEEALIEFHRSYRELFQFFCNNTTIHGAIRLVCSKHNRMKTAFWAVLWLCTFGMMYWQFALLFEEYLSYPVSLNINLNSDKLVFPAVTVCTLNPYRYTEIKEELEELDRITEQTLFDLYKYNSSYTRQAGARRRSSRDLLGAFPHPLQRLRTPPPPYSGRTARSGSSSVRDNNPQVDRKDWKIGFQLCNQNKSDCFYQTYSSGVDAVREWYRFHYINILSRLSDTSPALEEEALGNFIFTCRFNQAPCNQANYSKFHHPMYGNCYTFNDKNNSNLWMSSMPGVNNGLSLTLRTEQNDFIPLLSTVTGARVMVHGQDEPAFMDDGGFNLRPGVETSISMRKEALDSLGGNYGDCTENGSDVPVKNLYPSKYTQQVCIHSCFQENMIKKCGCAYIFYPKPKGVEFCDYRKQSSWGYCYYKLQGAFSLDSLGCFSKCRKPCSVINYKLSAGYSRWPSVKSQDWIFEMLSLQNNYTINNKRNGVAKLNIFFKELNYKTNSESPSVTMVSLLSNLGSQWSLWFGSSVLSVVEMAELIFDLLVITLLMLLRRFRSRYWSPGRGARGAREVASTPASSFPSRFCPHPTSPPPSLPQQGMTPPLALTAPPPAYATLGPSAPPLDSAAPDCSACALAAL
T1 sequence (P37091 1-650): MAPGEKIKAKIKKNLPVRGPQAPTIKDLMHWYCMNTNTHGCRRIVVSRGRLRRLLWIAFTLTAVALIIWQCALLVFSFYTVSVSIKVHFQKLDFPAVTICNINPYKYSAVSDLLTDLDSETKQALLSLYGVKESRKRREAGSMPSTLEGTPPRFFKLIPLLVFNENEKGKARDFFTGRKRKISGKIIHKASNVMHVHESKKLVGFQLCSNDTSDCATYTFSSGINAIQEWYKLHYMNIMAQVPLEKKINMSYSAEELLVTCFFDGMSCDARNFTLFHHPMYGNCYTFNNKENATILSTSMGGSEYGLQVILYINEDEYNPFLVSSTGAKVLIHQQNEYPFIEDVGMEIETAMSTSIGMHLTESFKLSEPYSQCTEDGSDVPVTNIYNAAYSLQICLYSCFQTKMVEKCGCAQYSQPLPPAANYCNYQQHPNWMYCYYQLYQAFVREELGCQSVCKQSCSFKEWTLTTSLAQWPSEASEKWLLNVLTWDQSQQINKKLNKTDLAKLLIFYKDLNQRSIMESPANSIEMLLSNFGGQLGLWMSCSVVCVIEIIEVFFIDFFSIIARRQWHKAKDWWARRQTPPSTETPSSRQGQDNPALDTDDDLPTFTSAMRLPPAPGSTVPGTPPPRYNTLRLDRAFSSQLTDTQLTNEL

[2] = target: T2, epithelial sodium channel (ENaC), β subunit (FLAG-tagged β-ENaC) (Rattus norvegicus, UniProt P37089+P37090+P37091); test: as above; format: cell-based
T2 sequence (P37090 1-638): T1 sequence (P37090 1-638 G525C) with C525G
T2 sequence (P37089 1-698): T1 sequence (P37089 1-698)
T2 sequence (P37091 1-650): T1 sequence (P37091 1-650)

Row | Compound | Ki [1] [nM] | Ki [2] [nM]
1 | N=C(N)NC(=O)c1nc(Cl)c(N)nc1N [amiloride] | 36000 | 84
2 | NC(=NCc1ccccc1)NC(=O)c1nc(Cl)c(N)nc1N [benzamil] | 2900 | 18

— PMC2151644 (The Journal of General Physiology, 2007)
